According to ChEMBL document CHEMBL5614440, “Development of Novel Indole-Based Covalent Inhibitors of TEAD as Potential Antiliver Cancer Agents” (J Med Chem, 2024):

Assays:
Huh-7 [1] = test: Antiproliferative activity against human Huh-7 cells incubated for 3 days by CCK8 assay; format: functional, cell-based; conditions: Huh-7, 72 h
HEK293T = test: Inhibition of TEAD (unknown origin) expressed in HEK293T cells transfected with 8xGTIIC-luciferase at 10 uM by dual luciferase reporter assay relative to control; format: cell-based; conditions: Homo sapiens
Huh-7 [2] = test: Antiproliferative activity against human Huh-7 cells at 10 uM incubated for 3 days by CCK8 assay; format: functional; conditions: time 3 day
Huh-7 [3] = test: Inhibition of TEAD transcription in human Huh-7 cells transfected with 8xGTIIC-luciferase assessed as downregulation of CTGF protein expression by Western blotting analysis; format: cell-based; conditions: dose 1.25-15 µM
Huh-7 [4] = test: (§1) Inhibition of TEAD transcription in human Huh-7 cells transfected with 8xGTIIC-luciferase by dual luciferase reporter assay; format: cell-based
[5] = as §1; format: cell-based
[6] = Antiproliferative activity against mouse AML12 cells at 10 uM incubated for 3 days by CCK8 assay; format: toxicity, cell-based; conditions: time 3 day
Huh-7 [7] = test: Inhibition of TEAD transcription in human Huh-7 cells transfected with 8xGTIIC-luciferase assessed as downregulation of CTGF mRNA expression incubated for 24 hrs by RT-PCR analysis; format: cell-based; conditions: dose 1.25-10 µM

SMILES | IC50 (Huh-7 [1]) | inhibition (HEK293T) | also measured
O=C(CCl)c1c[nH]c2cc(Cl)c(OCc3ccc(C(F)(F)F)c(F)c3)cc12 | 1.8 µM | – | –
N#C/C(=C\c1c[nH]c2cc(Cl)c(OCc3cccc4ccccc34)cc12)C(N)=O | – | 51.3% | Activity (Huh-7 [2]): 70%
O=C(CCl)NCc1c[nH]c2cc(Cl)c(OCc3cccc4ccccc34)cc12 | 0.8 µM | 81.5% | –
N#C/C(=C\c1c[nH]c2cc(Cl)c(OCc3cccc(C(F)(F)F)c3)cc12)C(N)=O | 5.2 µM | 59.7% | –
C=CC(=O)NCc1c[nH]c2cc(Cl)c(OCc3cccc4ccccc34)cc12 | 14.4 µM | 10.6% | –
O=C(CCl)NCc1c[nH]c2cc(Cl)c(OCc3ccc4ccccc4c3)cc12 | 5.7 µM | 67.4% | –
N#C/C(=C\c1c[nH]c2cc(Cl)c(OCc3ccc4ccccc4n3)cc12)C(N)=O | 68.7 µM | – | –
O=C(CCl)NCc1c[nH]c2cc(Cl)c(OCc3ccccc3)cc12 | 1.2 µM | 97.8% | inhibition (Huh-7 [3]): Dose-Dependent Effect; inhibition (Huh-7 [4]): Dose-Dependent Effect
N#C/C(=C\c1c[nH]c2cc(Cl)c(OCc3ccc4ccccc4c3)cc12)C(N)=O | 4.1 µM | 47.3% | –
Clc1cc2[nH]ccc2cc1OCc1ccccc1 | 32.5 µM | 68.3% | IC50 [5]: 5 µM; inhibition at 72 h, 10 µM [6]: 20.3%
O=C(CCl)c1c[nH]c2cc(Cl)c(OCc3ccc4ccccc4c3)cc12 | 2.3 µM | 95.6% | inhibition (Huh-7 [3]): Dose-Dependent Effect; IC50 [5]: 0.87 µM; inhibition (Huh-7 [7]): Dose-Dependent Effect
N#C/C(=C\c1c[nH]c2cc(Cl)c(OCc3ccccc3)cc12)C(N)=O | > 50 µM | – | –
COc1cc2[nH]cc(C(=O)CCl)c2cc1OCc1cccc2ccccc12 | 2.5 µM | 64.5% | –
